Results on one compound are retold here after patent US20250213627A1, “RECOMBINANT MICROORGANISM-BASED METHODS AND COMPOSITIONS FOR TREATMENT OF DISEASE” (Baylor College of Medicine, priority 2021, published 2025).

This data set is described as follows: Bioavailability and pharmacokinetics of ShK-235 in circulation of healthy rats. The class given is in vivo, rat. The procedure: To test whether the intestinal environment interferes with LrS235 secretion of ShK-235, or prevents it from crossing into the circulation, healthy rats were gavaged with a single bolus of 1×10^9 CFU of either LrGusA or LrS235, both after SppIP induction, and 6 hours later, sera was collected and the ability of serum samples to block Kv1.3 channels tested by whole-cell patch-clamp.
Sera was taken at various timepoints ranging from 3 hours to 72 hours after the single bolus of LrS235. Peak levels of ShK-235 were detected 6 hours after LrS235 delivery, with the range of functional activity from 3 hours to 48 hours post-gavage (FIG. 8C).
Bioavailability and pharmacokinetics of ShK-235 after oral delivery. Male rats received a single oral gavage of either 1×10^9 cfus LrS235 or an enteric-coated capsule filled with ShK-235. Blood was collected via the saphenous vein at the different time points indicated in the figure, the last blood draw being a terminal cardiac puncture (48). Serum samples were assayed for Kv1.3 block by patch-clamp electrophysiology.

As for `CC[C@H](C)[C@@H]1NC(=O)[C@H](CO)NC(=O)[C@H](Cc2c[nH]cn2)NC(=O)[C@H](CCCCN)NC(=O)[C@@H]2CSSC[C@@H]3NC(=O)[C@H]([C@@H](C)O)NC(=O)[C@H](CCCCN)NC(=O)[C@H](CCCNC(=N)N)NC(=O)[C@H](CSSC[C@H](NC(=O)[C@H](CCCNC(=N)N)NC(=O)[C@H](CO)NC(=O)[C@H](CCCCN)NC(=O)[C@@H]4CCCN4C(=O)[C@H]([C@@H](C)CC)NC(=O)[C@H]([C@@H](C)O)NC(=O)[C@H](CC(=O)O)NC(=O)[C@H]([C@@H](C)CC)NC(=O)[C@@H](NC(=O)[C@H](CO)NC(=O)[C@@H](N)CCCNC(=N)N)CSSC[C@@H](C(=O)N[C@@H](C)C(=O)O)NC(=O)[C@H]([C@@H](C)O)NC(=O)CNC3=O)C(=O)N[C@@H]([C@@H](C)O)C(=O)N[C@@H](C)C(=O)N[C@@H](Cc3ccccc3)C(=O)N[C@@H](CCCCN)C(=O)N2)NC(=O)[C@H](Cc2ccccc2)NC(=O)[C@H](CO)NC(=O)[C@H](CC(C)C)NC(=O)[C@H](CCCNC(=N)N)NC(=O)[C@H](Cc2ccc(O)cc2)NC(=O)[C@H](CCCCN)NC1=O` [ShK-235], the “Serum levels of ShK-235 after enteric-coated capsule” value (oral ACRYL-EZE coated capsule filled with 0.3 mg ShK-235) is “no measurable serum levels”. Further, the level at time molar (rat, in vivo, injection of 0.1 mg/kg, read-out: Level detected in the circulation after injection) is 0.6 to 0.8 nM.
